# Laboratory results reported in publication PMC10058583, “Development of Novel Fluorinated Polyphenols as Selective Inhibitors of DYRK1A/B Kinase for Treatment of Neuroinflammatory Diseases including Parkinson’s Disease” (Pharmaceuticals, 2023).
# Where two headings read alike, the source gives them in different places.
# Assays:
# [1] = Pharmacokinetic studies in C57BL/6 mice (plasma and tissues); format: in vivo, mouse; settings: for AUC(0-t) / Cmax / Tmax / AUC(0-inf) / half-life / bioavailability: both sexes, C57BL/6, mouse; for bioavailability: read-out: F (absolute bioavailability)
# Procedure: To overcome the generally poor PK profile of catechins, we developed a proprietary formulation that allows for the delivery of these drugs in high concentrations for oral (PO) or intranasal (IN) use. Our liquid formulation is based on the solubilizer and penetration enhancer (2-hydroxypropyl)-β-cyclodextrin (HP-β-CD), PEG-400, and water. This vehicle allows us to achieve high drug concentration in dosing solution (up to 20% w/w) when needed. PK studies were conducted for 1c in adult male and female C57BL/6 mice (n = 3/sex/time point) using (1) a single IV dose (5 mg/kg), (2) an IN dose (60 mg/kg, 5 µL of a clear solution/nostril/twice), and (3) a single PO dose (100 mg/kg). We analyzed the concentration of the drug in several tissues, including the brain, lungs, liver, and plasma. We observed that this class of molecules is stable in circulation; however, when the tissues are harvested for bioanalytical work, the drug undergoes rapid degradation, probably because of the direct contact with oxygen and metals, which catalyzes its rapid degradation/oxidation. We were able to stabilize the drug in blood by the immediate addition of ascorbic acid and TCEP [29]; however, the same was not possible with solid organs such as the brain and liver, which need to be collected through surgery and homogenized before any stabilizing agent can be added. Therefore, tissue PK data tend to vary.
# C57BL/6J mice were given a single dose of drug via the IN or PO route. […] For PO delivery, we replaced water with saline. The volume for IN delivery was 5 µL/nostril, and the volume used for oral delivery was 10 mL/kg. After sacrifice, blood (500 µL) was collected into K2EDTA microtubes and kept on ice all times (must be centrifuged within 30 min of collection). Blood was centrifuged in EDTA vacuum at 4 °C at 15,000× g for 4 min; ~250 µL of plasma was collected into polyethylene tubes containing 50 µL of AA/TCEP stabilizing solution (20 mM ascorbic acid and 13 mM TCEP in 50 mM K2HPO4 buffer; the pH of the solution was adjusted to 6.5 using 2 M NaOH). Then, 200 µL of the collected plasma was mixed with (1) 24 µL of a solution of 10% ascorbic acid and 0.1% EDTA in 40 mM NaH2PO4; (2) 40 µL of 50 mM sodium phosphate (pH 7.4); (3) 500 units of β-D-glucuronidase type X-A from Escherichia coli (Sigma Chemical Co, St Louis, MO, USA), and (4) 4 units of sulfatase type VIII from abalone entrails (Sigma Chemical Co). The mixture was incubated at 37 °C for 45 min. Plasma was then extracted by the addition of 0.5 mL ACN; the mixture was vortex-mixed for 2 min, then snap-frozen with isopropanol/carbon dioxide dry ice, and the upper layer of ACN was removed. The process was repeated another 2 times. The ACN fractions were pooled into a polyethylene tube kept on ice. The combined fractions were evaporated under a gentle stream of nitrogen at ambient temperature. The residue obtained after evaporation was reconstituted in 200 µL of 75 mM citric acid//25 mM ammonium acetate: ACN (75:25 by vol), and vortexed vigorously for 5 min, and 20 µL of the resulting solution was injected into the LC-MS/MS column.
# Drug analysis in tissues: About ~0.4 g of the tissue was homogenized with 1 mL of ice-cold 0.4 M sodium phosphate buffer containing 6 mg of ascorbic acid and 0.5 mg of Na2EDTA (final pH of 6.5). After centrifugation at 4 °C at 15,000× g for 4 min, the supernatant was collected into polyethylene tubes containing 50 µL of the AA/TCEP stabilizing solution. Then 1 U of sulfatase and 250 U of β-glucuronidase were added to the abovementioned homogenized mixture. Samples were incubated at 37 °C for 45 min, then extracted, dried, and resuspended in a manner similar to that for plasma. Samples were then analyzed by LC-MS/MS.
# [2] = system: MPTP-treated C57BL/6J mice; experiment: MPTP model for Parkinson's disease; format: in vivo, mouse
# Procedure: We tested the behavioral effect of 1c in the MPTP model for PD using both IN and PO delivery (both 25 mg/kg, BID). This is a common neurodegenerative disorder model characterized by a progressive loss of dopaminergic (DA) neurons in the […]. Several studies have shown that oxidative stress, neuroinflammation, and microglial activation play a pivotal role, at least in the progression of PD [35].
# MPTP dissolved in saline was administered via intraperitoneal injections once daily at a dosage of 30 mg/kg/day for 5 consecutive days. The control group was administered intraperitoneal injections of saline.
# The behavioral tests were performed at initiation as the baseline and 3, 6, and 9 days following the last MPTP injection. Pole test: the test consisted of a gauze-taped pole (45 cm high, 1 cm in diameter) with a small cork ball at the top. Mice were placed with their head facing upwards immediately below the ball. Two times were recorded: the time it took for the mouse to turn completely downward (T-turn) and the time it took to descend to the floor (T-total), with a cutoff limit of 60 sec. The test consisted of two trials separated by 10 min intertrial intervals, and the average time was calculated. Mice were pretrained for 3 days before MPTP injection. The rotarod test was used to assess the motor coordination and balance of animals. On the test day, the mice were habituated for 30 min in the test room before testing. The drum was slowly accelerated to a speed of 4–40 rpm for a maximum of 300 s. The latency to fall off the rotarod within this time period was recorded. The test consisted of three trials separated by 10 min intertrial intervals. The mean latency to fall off the rotarod was recorded and used for analysis. Mice were trained for 3 days before MPTP injection.
# Tissue Collection and IHC Analysis: within 2 h following the last dose, the blood of animals was collected via cardiac puncture under isoflurane-induced anesthesia. After blood collection, animals were transcardially perfused with normal saline, followed by buffered formalin fixative. Brains were removed, post-fixed, and embedded in paraffin for subsequent IHC analysis of […] (TH)-positive cells in the substantia nigra (SN).
# [3] = inhaled or intranasal, IN (60 mg/kg), brain
# [4] = inhaled or intranasal, IN (60 mg/kg), plasma
# [5] = IN or PO 25 mg/kg BID, no difference between the two routes
compound,measurement,setting,value
COc1cc(C(=O)O[C@@H]2Cc3c(O)cc(O)cc3O[C@H]2c2cc(O)c(O)c(O)c2)c(F)c(O)c1O [Compound 1c],Tlast,"[1]; IN (60 mg/kg), brain",8 h
same,Tlast,"[1]; IN (60 mg/kg), plasma",24 h
same,Tlast,"[1]; PO (100 mg/kg), brain",24 h
same,Tlast,"[1]; PO (100 mg/kg), plasma",24 h
same,AUC(0-t),"[1]; PO (100 mg/kg), brain",2390 ng·h/mL
same,Cmax,"[1]; PO (100 mg/kg), brain",110 ng/mL
same,Tmax,"[1]; PO (100 mg/kg), brain",2 h
same,AUC(0-inf),"[1]; PO (100 mg/kg), plasma",4280 ng·h/mL
same,AUC(0-t),"[1]; PO (100 mg/kg), plasma",4170 ng·h/mL
same,Cmax,"[1]; PO (100 mg/kg), plasma",684 ng/mL
same,Tmax,"[1]; PO (100 mg/kg), plasma",1 h
same,half-life,"[1]; PO (100 mg/kg), plasma",4.7 h
same,AUC(0-t),[1]; [3],116 ng·h/mL
same,Cmax,[1]; [3],18 ng/mL
same,Tmax,[1]; [3],0.5 h
same,AUC(0-inf),[1]; [4],16100 ng·h/mL
same,AUC(0-t),[1]; [4],15800 ng·h/mL
same,Cmax,[1]; [4],2350 ng/mL
same,Tmax,[1]; [4],2 h
same,half-life,[1]; [4],4.8 h
same,AUC(0-inf),"[1]; plasma, iv, i.v. (5mg/kg)",1390 ng·h/mL
same,AUC(0-t),"[1]; plasma, iv, i.v. (5mg/kg)",1280 ng·h/mL
same,Cmax,"[1]; plasma, iv, i.v. (5mg/kg)",657 ng/mL
same,Tmax,"[1]; plasma, iv, i.v. (5mg/kg)",0 h
same,half-life,"[1]; plasma, iv, i.v. (5mg/kg)",3.2 h
same,bioavailability,"[1]; plasma, other: intranasal (IN), 60 mg/kg, IN (60 mg/kg), plasma",100%
same,bioavailability,"[1]; plasma, po, 100 mg/kg, PO (100 mg/kg), plasma",~16%
same,Tlast,[1]; i.v. (5mg/kg),10 h
same,tyrosine-hydroxylase-positive cells in the substantia nigra pars compacta,[2]; IN 25 mg/kg BID,failed to show any histological difference
same,"movement behavior, pole test",[2]; [5],completely restored
same,"movement behavior, rotarod test",[2]; [5],completely restored
same,tyrosine-hydroxylase-positive cells in the substantia nigra pars compacta,[2]; PO 25 mg/kg BID,protected from MPTP toxicity
